Where two headings read alike, the source gives them in different places.
Test system: Bacillus subtilis spore
Details: rinsing 3 sec, log(adhesion bacilli/survival bacilli)
Description: Sterilization process was performed, changing the conditions of a detail according to the following procedure for PET bottle (bottle made from a polyethylene terephthalate) with a capacity of 500 ml.
The hot blast 3 was supplied to the interior of the bottle per minute 0.1 m from the nozzle with a bore of 10 mm, and the preheating of the bottle was carried out. The temperature of hot blast was set as 105° C.-125° C. near the nose of the nozzle, and the amount of insertions into the bottle of the nozzle was set as 30 mm. Simultaneously, the hot blast of 85° C. was turned and sprayed on the lip portion of a bottle by the flow rate of 3 per minute 0.1 m from the nozzle with a bore of 50 mm. In addition, the number of nozzles for the lip portion heating was two to one bottle. The blasting time of the hot blast from each nozzle was set up in 3 seconds. The temperature in the bottle after the hot blast supplying had reached 50° C.
The bottle was left for 0.5-3.5 seconds after the mist supplying. Then, the nozzle was inserted into the bottle and hot blast was blown for 1 second. The bore of the nozzle, the amount of insertions of the nozzle, and the temperature and the flow rate of the hot blast were the same as the preheating.
The bottle was left for 1-3.5 second after hot blast blowing in. Then, the bottle was inverted and was inserted the a nozzle a nozzle with a bore of 6 mm in the interior, and the bottle was rinsed for aseptic water which is heated by 70° C. for 3 seconds. The flow rate of aseptic water was 8.5 L/min.
Moreover, a part of process was omitted when sterilization process was performed.
About each of each sterilization conditions, five bottles with the Bacillus subtilis spore of 103, 104, and 105 was sterilized, the trypto-soy bouillon medium was distributed aseptically in the bottle, and the existence of culture and sterilization was evaluated. The bacterial number of survivals was computed by the most probable number (MPN: most probable number) in probability theory from the test result in each sterilization conditions, and the following formula estimated the sterilization effect in quest of the opposite numeric value of the number of adhesion bacilli, and the number of survival bacilli.
Sterilization effect=log (the number of adhesion bacilli/the number of survival bacilli).

Compound `OO` [hydrogen peroxide] has a Sterilization effect (Condition 1: preheating 50 °C, mist 35 μl, leaving 3.5 sec, hot blast Yes, standing 1.0 sec) of 6.5, a Sterilization effect (Condition 2: preheating 50 °C, mist 25 μl, leaving 3.5 sec, hot blast Yes, standing 1.0 sec) of 5.5 and a Sterilization effect (Condition 3: preheating 50 °C (neck portion not heated from the outside), mist 20 μl, leaving 3.5 sec, hot blast Yes, standing 1.0 sec) of 5.0. The Sterilization effect (Condition 4: preheating 50 °C, mist 15 μl, leaving 3.5 sec, hot blast Yes, standing 1.0 sec) was 4.5, the Sterilization effect (Condition 5: preheating 50 °C (neck portion heated from the exterior), mist 20 μl, leaving 3.5 sec, hot blast Yes, standing 1.0 sec) was 5.5 and the Sterilization effect (Condition 6: preheating No, mist 40 μl, leaving 3.5 sec, hot blast Yes, standing 1.0 sec) was 3.0. For the same compound, the Sterilization effect (Condition 7: preheating No, mist 20 μl, leaving 3.5 sec, hot blast Yes, standing 1.0 sec) was <2, the Sterilization effect (Condition 8: preheating 50 °C, mist 30 μl, leaving 0.5 sec, hot blast Yes, standing 3.5 sec) was 3.0 and the Sterilization effect (Condition 9: preheating 50 °C, mist 20 μl, leaving 0.5 sec, hot blast Yes, standing 3.5 sec) was <2. For the same compound, the Sterilization effect (Condition 10: preheating 50 °C, mist 20 μl, leaving 3.5 sec, hot blast No, standing 1.0 sec) was 4.0 and the Sterilization effect (Condition 11: preheating 50 °C, mist 15 μl, leaving 3.5 sec, hot blast No, standing 1.0 sec) was 3.0.
